Laboratory results reported in the supplement of paper PMC10307832.

Assays:
Assay in all cases: relative viability (nuclei count vs DMSO), 5 days (fraction); higher = more cells survive
[1] = tested on: NCI-H2126
Summary of the method: (§1)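 Relative viability equals treated-well nuclei counts divided by vehicle-well nuclei counts. Counts came from 4× images of lung cancer cell lines grown in 1536-well plates for 5 days after pin-tool dosing on the day after seeding. Dosing used one drug alone or a fixed anchor-drug dose plus five library-drug doses (not always all listed) in √10 steps, and values are medians of duplicate plates.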

[2] = tested on: NCI-H522
Summary of the method: as §1

[3] = tested on: EKVX
Summary of the method: as §1

[4] = tested on: NCI-H1648
Summary of the method: as §1

[5] = tested on: ABC-1
Summary of the method: as §1

[6] = tested on: A549
Summary of the method: as §1

[7] = tested on: IA-LM
Summary of the method: as §1

| Compound | relative viability ([1]; first compound 0.005 µM) | relative viability ([1]; first compound 0.01581 µM) | relative viability ([1]; first compound 0.05 µM) | relative viability ([1]; first compound 0.1581 µM) | relative viability ([1]; first compound 0.5 µM) | relative viability ([2]; first compound 0.005 µM) | relative viability ([2]; first compound 0.01581 µM) | relative viability ([2]; first compound 0.05 µM) | relative viability ([2]; first compound 0.1581 µM) | relative viability ([2]; first compound 0.5 µM) | relative viability ([3]; first compound 0.005 µM) | relative viability ([3]; first compound 0.01581 µM) | relative viability ([3]; first compound 0.05 µM) | relative viability ([3]; first compound 0.1581 µM) | relative viability ([3]; first compound 0.5 µM) | relative viability ([4]; first compound 0.005 µM) | relative viability ([4]; first compound 0.01581 µM) | relative viability ([4]; first compound 0.1581 µM) | relative viability ([4]; first compound 0.5 µM) | relative viability ([5]; first compound 0.005 µM) | relative viability ([5]; first compound 0.01581 µM) | relative viability ([5]; first compound 0.05 µM) | relative viability ([5]; first compound 0.1581 µM) | relative viability ([5]; first compound 0.5 µM) | relative viability ([6]; first compound 0.005 µM) | relative viability ([6]; first compound 0.01581 µM) | relative viability ([6]; first compound 0.05 µM) | relative viability ([6]; first compound 0.1581 µM) | relative viability ([6]; first compound 0.5 µM) | relative viability ([7]; first compound 0.005 µM) | relative viability ([7]; first compound 0.01581 µM) | relative viability ([7]; first compound 0.05 µM) | relative viability ([7]; first compound 0.1581 µM) | relative viability ([7]; first compound 0.5 µM) |
| --- | --- | --- | --- | --- | --- | --- | --- | --- | --- | --- | --- | --- | --- | --- | --- | --- | --- | --- | --- | --- | --- | --- | --- | --- | --- | --- | --- | --- | --- | --- | --- | --- | --- | --- |
| CC1(C)CCC(c2ccc(Cl)cc2)=C(CN2CCN(c3ccc(C(=O)NS(=O)(=O)c4ccc(N[C@H](CCN5CCOCC5)CSc5ccccc5)c(S(=O)(=O)C(F)(F)F)c4)cc3)CC2)C1 [Navitoclax] + CC(=O)c1c(C)c2cnc(Nc3ccc(N4CCNCC4)cn3)nc2n(C2CCCC2)c1=O [Palbociclib] (partner 0.5 µM) | 0.35 | 0.355 | 0.342 | 0.303 | 0.366 | 1.02 | 1.05 | 1.06 | 0.735 | 0.942 | 0.44 | 0.405 | 0.422 | 0.403 | 0.388 | 0.274 | 0.269 | 0.289 | 0.328 | 0.896 | 0.845 | 0.691 | 0.747 | 0.639 |  |  |  |  |  |  |  |  |  |  |
| CC1(C)CCC(c2ccc(Cl)cc2)=C(CN2CCN(c3ccc(C(=O)NS(=O)(=O)c4ccc(N[C@H](CCN5CCOCC5)CSc5ccccc5)c(S(=O)(=O)C(F)(F)F)c4)cc3)CC2)C1 [Navitoclax] + Nc1nc2[nH]cc(CCc3ccc(C(=O)N[C@@H](CCC(=O)O)C(=O)O)cc3)c2c(=O)[nH]1 [Pemetrexed] (partner 0.2 µM) | 0.667 | 0.696 | 0.671 | 0.602 | 0.624 | 1.07 | 1.28 | 0.885 | 1.11 | 1.13 | 0.433 | 0.389 | 0.4 | 0.387 | 0.366 | 0.868 | 0.747 | 0.563 | 0.833 |  |  |  |  |  |  |  |  |  |  |  |  |  |  |  |
| CC1(C)CCC(c2ccc(Cl)cc2)=C(CN2CCN(c3ccc(C(=O)NS(=O)(=O)c4ccc(N[C@H](CCN5CCOCC5)CSc5ccccc5)c(S(=O)(=O)C(F)(F)F)c4)cc3)CC2)C1 [Navitoclax] + Nc1ncn([C@H]2C[C@H](O)[C@@H](CO)O2)c(=O)n1 [Decitabine] (partner 2 µM) | 0.595 | 0.647 | 0.522 | 0.547 | 0.564 | 0.685 | 0.696 | 0.699 | 0.547 | 0.712 | 0.372 | 0.428 | 0.361 | 0.285 | 0.343 | 0.528 | 0.511 | 0.518 | 0.44 | 0.889 | 1.21 | 1.02 | 0.986 | 1 | 0.252 | 0.249 | 0.204 | 0.271 | 0.246 |  |  |  |  |  |
| CC1(C)CCC(c2ccc(Cl)cc2)=C(CN2CCN(c3ccc(C(=O)NS(=O)(=O)c4ccc(N[C@H](CCN5CCOCC5)CSc5ccccc5)c(S(=O)(=O)C(F)(F)F)c4)cc3)CC2)C1 [Navitoclax] + O=C(CCCCCCC(=O)Nc1ccccc1)NO [Vorinostat] (partner 1 µM) | 0.789 | 0.875 | 0.795 | 0.761 | 0.681 | 0.957 | 0.934 | 0.841 | 0.878 | 0.91 | 0.735 | 0.911 | 0.668 | 0.711 | 0.79 | 0.292 | 0.471 | 0.412 | 0.431 | 1.22 | 1.34 | 0.725 | 1.41 | 1.04 |  |  |  |  |  | 0.884 | 0.937 | 0.919 | 0.875 | 0.965 |
